Data from patent US10316032B2, “Solid forms of a compound for modulating kinases” (Plexxikon Inc., priority 2015, dated 2019).
≈ marks a conversion by molar mass, not a printed value.

Legend:
B-Raf V600E kinase = B-Raf V600E kinase (Homo sapiens, UniProt P15056, V600E); assay: B-Raf V600E kinase inhibition
[1] = Interconversion (competitive slurry) experiments Form B / Form H; assay type: physicochemical; details: various solvent systems, between ambient temperature and approximately 75° C.
Procedure: Solutions of Compound I were prepared by adding sufficient solids to a given solvent or solvent system at ambient conditions such that undissolved solids were present. The mixture was then agitated in a closed vial at ambient or elevated temperature for an extended period of time. Solids were collected by vacuum filtration and analyzed.

[2] = Solubility estimates at ambient temperature (solvent aliquot addition, visual); assay type: physicochemical; details: thermodynamic from solid
Procedure: Aliquots of various solvents were added to measured amounts of Compound I with agitation (typically sonication) at ambient temperature until complete dissolution was achieved, as judged by visual observation. Solubilities were calculated based on the total solvent used to give a solution; actual solubilities may be greater because of the volume of solvent portions utilized or a slow rate of dissolution. […] If dissolution occurred at the first aliquot the value was reported as “>”.

B-Raf V600E kinase, sequence (P15056 whole entry V600E): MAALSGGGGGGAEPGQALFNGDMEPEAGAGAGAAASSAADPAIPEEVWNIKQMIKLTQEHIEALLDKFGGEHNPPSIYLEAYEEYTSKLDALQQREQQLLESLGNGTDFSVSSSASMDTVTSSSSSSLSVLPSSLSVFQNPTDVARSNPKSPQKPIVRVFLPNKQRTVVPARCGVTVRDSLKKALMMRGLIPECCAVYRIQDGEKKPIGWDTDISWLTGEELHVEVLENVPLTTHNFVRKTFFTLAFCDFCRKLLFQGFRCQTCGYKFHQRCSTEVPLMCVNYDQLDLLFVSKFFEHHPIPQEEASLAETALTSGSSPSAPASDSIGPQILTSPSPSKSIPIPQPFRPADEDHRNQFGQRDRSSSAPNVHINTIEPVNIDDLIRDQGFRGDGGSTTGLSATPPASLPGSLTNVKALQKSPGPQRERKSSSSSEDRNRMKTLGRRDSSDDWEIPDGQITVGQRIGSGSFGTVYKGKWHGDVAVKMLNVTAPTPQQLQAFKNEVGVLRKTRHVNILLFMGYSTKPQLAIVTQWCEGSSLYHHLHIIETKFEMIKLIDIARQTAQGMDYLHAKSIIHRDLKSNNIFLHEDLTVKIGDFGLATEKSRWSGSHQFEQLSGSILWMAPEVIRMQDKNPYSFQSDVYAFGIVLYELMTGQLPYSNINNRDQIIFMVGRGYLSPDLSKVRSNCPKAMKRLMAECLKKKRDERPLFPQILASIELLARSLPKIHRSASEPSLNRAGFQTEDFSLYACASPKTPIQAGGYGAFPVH

O=C(c1c(F)ccc(NS(=O)(=O)N2CC[C@@H](F)C2)c1F)c1c[nH]c2ncc(-c3cnc(C4CC4)nc3)cc12 [Compound I, (3R)—N-(3-(5-(2-cyclopropylpyrimidin-5-yl)-1H-pyrrolo[2,3-b]pyridine-3-carbonyl)-2,4-difluorophenyl)-3-fluoropyrrolidine-1-sulfonamide]
IC50 (B-Raf V600E kinase): < 100 nM

O=C(c1c(F)ccc(NS(=O)(=O)N2CC[C@@H](F)C2)c1F)c1c[nH]c2ncc(-c3cnc(C4CC4)nc3)cc12 [Compound I Form H, (3R)—N-(3-(5-(2-cyclopropylpyrimidin-5-yl)-1H-pyrrolo[2,3-b]pyridine-3-carbonyl)-2,4-difluorophenyl)-3-fluoropyrrolidine-1-sulfonamide]
relative stability of solid forms (competitive slurry) ([1]; listed as Form H): more stable than Form B

O=C(c1c(F)ccc(NS(=O)(=O)N2CC[C@@H](F)C2)c1F)c1c[nH]c2ncc(-c3cnc(C4CC4)nc3)cc12 [Compound I Form B, (3R)—N-(3-(5-(2-cyclopropylpyrimidin-5-yl)-1H-pyrrolo[2,3-b]pyridine-3-carbonyl)-2,4-difluorophenyl)-3-fluoropyrrolidine-1-sulfonamide]
relative stability of solid forms (competitive slurry) ([1]; listed as Form B): less stable than Form H
solubility ([2]; aqueous with cosolvent or surfactant or cyclodextrin, EtOH/Water (75/25 vol/vol)): ~5000 µg/mL (≈ 9.22 mM)
solubility ([2]; organic solvent or mixture, ACN): ~5000 µg/mL (≈ 9.22 mM)
solubility ([2]; organic solvent or mixture, Acetone): ~36000 µg/mL (≈ 66.4 mM)
solubility ([2]; organic solvent or mixture, DCM): < 1000 µg/mL
solubility ([2]; organic solvent or mixture, DMF): > 97000 µg/mL
solubility ([2]; organic solvent or mixture, DMSO): > 84000 µg/mL
solubility ([2]; organic solvent or mixture, Dioxane): > 103000 µg/mL
solubility ([2]; organic solvent or mixture, EtOAc): ~5000 µg/mL (≈ 9.22 mM)
solubility ([2]; organic solvent or mixture, EtOH): ~1000 µg/mL (≈ 1.84 mM)
solubility ([2]; organic solvent or mixture, Heptane): < 1000 µg/mL
solubility ([2]; organic solvent or mixture, IPA): < 1000 µg/mL
solubility ([2]; organic solvent or mixture, MTBE): < 2000 µg/mL
solubility ([2]; organic solvent or mixture, MeOH): ~4000 µg/mL (≈ 7.37 mM)
solubility ([2]; organic solvent or mixture, THF): > 102000 µg/mL
solubility ([2]; organic solvent or mixture, t-BuOH): < 2000 µg/mL
solubility ([2]; Water): < 1000 µg/mL
